Experiments:
C. difficile [1] = assay: C. difficile-infected hamster survival study; assay type: in vivo
Description: Animal studies were performed to determine the efficacy of MetRS inhibitors for treating C. difficile-infections. The MetRS inhibitors tested were 5-[3-((R)-6,8-Dibromo-chroman-4-ylamino)-propylamino]-4H-thieno[3,2-b]pyridine-7-one (both racemic mixture and the R enantiomer) and 5-[3-((R)-8-Bromo-6-chloro-chroman-4-ylamino)-propylamino]-4H-thieno[3,2-b]pyridin-7-one. Also tested was 2-(3-{3,5-Dibromo-2-[2-(4-methyl-thiazol-5-yl)-ethoxy]-benzylamino}-propylamino)-1H-quinolin-4-one.
Results were compared to C. difficile-infected hamsters treated with the conventional antibiotic, vancomycin. Infected hamsters were treated with either a solution or suspension of a MetRS inhibitor at 5 to 50 mg/kg or vancomycin at 2.5, 5 or 25 mg/kg. There were eight hamsters per group with the final endpoint of the experiment being survival. Expired hamsters were examined for GI condition.

C. difficile [2] = assay: Sporulation of C. difficile clinical isolates on agar containing compound; assay type: cell-based

O=c1cc(NCCCN[C@@H]2CCOc3c(Br)cc(Br)cc32)[nH]c2ccsc12 [5-[3-((R)-6,8-Dibromo-chroman-4-ylamino)-propylamino]-4H-thieno[3,2-b]pyridine-7-one] was tested, and the “survival on Day 28” value (C. difficile [1]; 5 mg/kg BID) was greater than 60%, the “efficacy ranking among the MetRS inhibitors tested” value (C. difficile [1]; hamster, in vivo) was “best efficacy” and the “spores (share of total cells)” value (C. difficile [2]; 0.25×MIC, 96 hours, all strains) was less than 2%. The “spores (share of total cells)” value (C. difficile [2]; 0.5×MIC, 96 hours, all strains) was less than 1%.

In the case of Cc1ncc([N+](=O)[O-])n1CCO [metronidazole, reference compound], the “spores (share of total cells)” value (C. difficile [2]; subMIC concentrations, all tested strains) is reported as “up to 100%”.

CN[C@H](CC(C)C)C(=O)N[C@H]1C(=O)N[C@@H](CC(N)=O)C(=O)N[C@H]2C(=O)N[C@H]3C(=O)N[C@H](C(=O)N[C@H](C(=O)O)c4cc(O)cc(O)c4-c4cc3ccc4O)[C@H](O)c3ccc(c(Cl)c3)Oc3cc2cc(c3O[C@@H]2O[C@H](CO)[C@@H](O)[C@H](O)[C@H]2O[C@H]2C[C@](C)(N)[C@H](O)[C@H](C)O2)Oc2ccc(cc2Cl)[C@H]1O [vancomycin, reference compound] was tested, and the “survival on Day 28” value (C. difficile [1]; vancomycin treatment, dose not given in the sentence (2.5, 5 or 25 mg/kg used)) was 0-10%.
